Data as given in patent US9315513B2, “Benzimidazole derivatives and their pharmaceutical compositions and uses” (XUANZHU PHARMA CO., LTD., priority 2010, dated 2016).
Where “and” joins values, the source holds several entries; their conditions need not be identical. Equal values may be shown once. Where a name gives a salt, the structure may show the parent alone. Read-outs that look alike come from different tables or passages of the source. Each block holds one compound with its values, some of them ahead of it.

Experiments:
[1] = system: gastric acid in pylorus ligated rats; test: Inhibition effects on gastric acid in pylorus ligated rats; type: in vivo, Wistar rats; conditions: for Inhibition effect on the gastric acid secretion in pylorus ligated rats (conclusion): in comparison with the solvent group
Experimental: Experimental animals: six-week old clean Wistar rats, male, 140-180 g.
Experimental samples: part of the compounds of the present invention, which structural formula and chemical name are shown in Table 1. […] Before test, these compounds were dissolved with physiological saline.
Pylorus was ligated by passing a suture beneath gastric pylorus, the drugs were immediately administered through duodenum, in which the solvent group was administered with physiological saline in 2 mL/kg, […] The animals were executed after 6 h, laparotomized, esophagus was ligated near to diaphragmatic muscle, whole stomach was taken out, washed to remove blood, stomach contents were poured out, the acidity degree of gastric acid was tested with pH test paper, the stomach contents was then centrifuged at 3000 rpm for 10 min. The volume of the supernatant was metered, and 1 mL of the supernatant was titrated with 0.01 mol/L NaOH solution, phenolphthalein was used as indicator, the volume of NaOH was recorded, and the total acidity degree and total acid output of gastric juice were calculated. Gastric juice total acidity degree (mmol/L)=consumed volume of NaOH solution (mL)*0.01 mol/L (NaOH concentration)/1 mL (supernatant volume)*1000; 1 h total acid output (mmol/h)=total acidity degree (mmol/L)*gastric juice volume (mL)/6 h/1000.

[2] = system: reflux esophagitis in rats; test: Effects on reflux esophagitis in rats; type: in vivo, Wistar rats; design: Esophagitis index: scale not given here; conditions: for Esophagitis index / Esophagus injury score / Injury status: 20 mg/kg through duodenum, 5 h; for Esophagitis index: 6 rats per group, average ± SD; for Esophagus injury score / Injury status: individual rats; for Protection effect on reflux esophagitis in rats (conclusion): in comparison with the model group
Experimental: The rats were etherized, laparotomized, pylorus ligated, and ligated at the part between glandular stomach and rumen. After ligation, the drugs were immediately administered through duodenum, in which the groups of the test samples were administered with test samples in 20 mg/kg, the model group was administered with the same volume of solvent, and the abdomens were then closed. The rats were released to the fasting cage, subjected to fasting and water deprivation for 5 h and then executed by air embolism. The stomach and esophagus were taken out together, fixed with 1% formaldehyde in esophagus for 1 h, and then the injury of esophagus was observed.

[3] = In vivo pharmacokinetic test in rats; design: species or system Wistar rats; conditions: for clearance / half-life / Vd: iv
Experimental: Experimental animals: male Wistar rats, 6 rats/compound, body weight 180-220 g, purchased from Shandong University, certificate no.: SCXK ( ? ) 20090001.
Experimental samples: Compound 1, Compound 29 and Compound 30 of the present invention, each of them is prepared according to the methods of the above examples, and dissolved in physiological saline before test.
Administration: as for intravenous push (I.V), Compound 1, Compound 29, Compound 30 were administered in a dose of 5 mg/kg, and a volume of 2 mL/kg; as for intragastric administration (P.O), Compound 1, Compound 29, Compound 30 were administered in a dose of 5 mg/kg, and a volume of 2 mL/kg. The rats were fasted without water deprivation for […] administration, and fed after 4 hours from the administration.
Blood collection: 0 h, 0.083 h, 0.25 h, 0.5 h, 1 h, 2 h, 4 h, 8 h, 24 h, at each time point, about 150 μL of whole blood was collected, centrifuged at 4° C. and 8000 rpm for 6 min using a low-temperature high-speed centrifuge, the separated plasma was frozen and stored at −80° C. in a refrigerator.
Analysis of plasma samples: as for Compound 1, Compound 29, Compound 30, 50 μL of plasma was taken, added with 120 μL internal standard solution (Tolbutamide, 5 ng/mL MeOH solution), subjected to 1500 rpm vortex for 2 min, then centrifuged at 14000 rpm for 5 min, the supernatant was collected, and analyzed by using LC-MS/MS. Calculation formula: absolute bioavailability F %=[AUC]INF(PO)*Dose(IV)/[AUC]INF(IV)*Dose(PO)
Wherein, AUCINF represents area under drug-time curve0→∞; Cmax represents peak drug concentration in blood; Tmax represents a time for reaching peak drug concentration in blood; F % represents absolute bioavailability; CL represents clearance rate; Vss represents apparent volume of distribution; T1/2 represents half-life period.

gastric acid secretion = conditions: cited from earlier work
gastric acid = conditions: cited from earlier work
[4] = Table 3, 20 mg/kg through duodenum, 6 h after pylorus ligation
[5] = Table 3, 20 mg/kg through duodenum, 6 h after pylorus ligation, average ± SD
[6] = Table 4, 30 mg/kg through duodenum, 6 h
[7] = Table 4, 30 mg/kg through duodenum, 6 h, SD in neighbouring cell
[8] = Table 5, 20 mg/kg, comparison with Compound 81 as control
[9] = male, Wistar, rat, in vivo, 5 mg/kg
[10] = male, Wistar, rat, in vivo, po, 5 mg/kg

clearance ([3]; male, Wistar, rat, plasma, rats, I.V, 5 mg/kg, read-out: CL (converted)): 32.5 mL/min/kg
half-life ([3]; male, Wistar, rat, plasma, rats, I.V, 5 mg/kg, read-out: T½ (converted)): 10.3 min
Vd ([3]; male, Wistar, rat, plasma, rats, I.V, 5 mg/kg, read-out: Vss): 0.255 L/kg
bioavailability ([3]; male, Wistar, rat, plasma, po, rats, P.O 5 mg/kg vs I.V 5 mg/kg, read-out: F % (absolute bioavailability)): 26.2%
AUC(0-inf) ([3]; male, Wistar, rat, plasma, po, rats, P.O, 5 mg/kg, read-out: AUCinf): 677 ng·h/mL
Cmax ([3]; male, Wistar, rat, plasma, po, rats, P.O, 5 mg/kg, read-out: Cmax): 1860 ng/mL
Tmax ([3]; male, Wistar, rat, plasma, po, rats, P.O, 5 mg/kg, read-out: Tmax): 4.98 to 15 min
Structure (SMILES): COCCCOc1ccnc(C[S+]([O-])c2nc3cc4c(cc3[nH]2)OCC4)c1C (stereo not shown) [Compound 1 (sodium salt)]
Gastric juice volume [1, 4]: 3.33 ± 0.97 mL
Total acid output [1, 4]: 0.0276 ± 0.0194 mmol/h
Total acidity degree [1, 4]: 47.85 ± 24.38 mmol/L
Acidity degree (pH value) [1, 5]: 3.14 ± 1.31 pH value
Gastric juice volume [1, 6]: 3.60 ± 0.88 mL
Volume of supernatant of gastric juice [1, 6]: 2.92 ± 0.71 mL
Acidity degree (pH value) [1, 7]: 3.90 pH value
Total acid output [1, 7]: 0.0141 mmol/h
Total acidity degree [1, 7]: 28.98 mmol/L
Total acidity degree [1, 8]: 54.52 ± 13.87 mmol/L
Esophagitis index [2]: 0.00 ± 0.00
Esophagus injury score ([2]; female rats): 0
Injury status ([2]; female rats): Normal
Esophagus injury score ([2]; male rats): 0
Injury status ([2]; male rats): Normal

In vivo pharmacokinetic properties (conclusion) ([3]; rat, in vivo): good in vivo pharmacokinetic properties
Structure (SMILES): COCCCOc1ccnc(C[S+]([O-])c2nc3cc4c(cc3[nH]2)OCC4)c1C (stereo not shown) [Compound 1, 2-[[4-(3-methoxylpropoxy)-3-methylpyridin-2-yl]methylsulfinyl]-6,7-dihydro-3H-benzofuro[5,6-d]imidazole]
Inhibition effect on the gastric acid secretion in pylorus ligated rats (conclusion) ([1]; 20 mg/kg): significant inhibition effect
Protection effect on reflux esophagitis in rats (conclusion) ([2]; 20 mg/kg): good protection effects on esophagus

Structure (SMILES): COCCCOc1ccnc(C[S+]([O-])c2nc3cc4c(cc3[nH]2)OCCO4)c1C (stereo not shown) [Compound 6 (sodium salt)]
Gastric juice volume [1, 4]: 10.28 mL
Total acid output [1, 4]: 0.0807 mmol/h
Total acidity degree [1, 4]: 103.16 mmol/L
Acidity degree (pH value) [1, 5]: 1.82 pH value
Esophagitis index [2]: 3.00 ± 1.27
Esophagus injury score ([2]; 20 mg/kg, female rats): 4 (4 scores for injury area exceeding 75% or perforation) and 2 (2 scores for injury area of 25-50%) and 1 (1 score for injury area of 1-25%)
Esophagus injury score ([2]; 20 mg/kg, male rats): 3 (3 scores for injury area of 50-75%) and 4 (4 scores for injury area exceeding 75% or perforation) (2×)

Structure (SMILES): COCCCOc1ccnc(C[S+]([O-])c2nc3cc4c(cc3[nH]2)OCCO4)c1C (stereo not shown) [Compound 6, 2-[[4-(3-methoxylpropoxy)-3-methylpyridin-2-yl]methylsulfinyl]-6,7-dihydro-1H-[1,4]dioxino[2,3-f]benzo[d]imidazole]
Inhibition effect on the gastric acid secretion in pylorus ligated rats (conclusion) ([1]; 20 mg/kg): do not show inhibition effect
Protection effect on reflux esophagitis in rats (conclusion) ([2]; 20 mg/kg): no protection effect

Structure (SMILES): COc1c(C)cnc(C[S+]([O-])c2nc3cc4[nH]cnc4cc3[nH]2)c1C (stereo not shown) [Compound 8, 2-[(3,5-dimethyl-4-methoxylpyridin-2-yl)methylsulfinyl]-1H,5H-imidazo[5,4-f]benzo[d]imidazole]
Inhibition effect on the gastric acid secretion in pylorus ligated rats (conclusion) ([1]; 20 mg/kg): do not show inhibition effect
Gastric juice volume [1, 4]: 6.10 mL
Total acid output [1, 4]: 0.1242 mmol/h
Total acidity degree [1, 4]: 120.92 mmol/L
Acidity degree (pH value) [1, 5]: 1.71 pH value

Structure (SMILES): COCCCOc1ccnc(C[S@+]([O-])c2nc3cc4c(cc3[nH]2)OCC4)c1C [Compound 29, (S)-2-[[[4-(3-methoxylpropoxy)-3-methyl-2-pyridyl]methyl]sulfinyl]-6,7-dihydro-3H-benzofuro[5,6-d]imidazole]
Gastric juice volume [1, 6]: 3.43 ± 1.11 mL
Volume of supernatant of gastric juice [1, 6]: 2.70 ± 1.04 mL
Acidity degree (pH value) [1, 7]: 3.75 pH value
Total acid output [1, 7]: 0.0178 mmol/h
Total acidity degree [1, 7]: 37.85 mmol/L
clearance ([3]; male, Wistar, rat, in vivo, rats, I.V, 5 mg/kg, read-out: CL (converted)): 21.4 mL/min/kg
half-life ([3]; male, Wistar, rat, in vivo, rats, I.V, 5 mg/kg, read-out: T½ (converted)): 13.4 min
Vd ([3]; male, Wistar, rat, in vivo, rats, I.V, 5 mg/kg, read-out: Vss): 0.289 L/kg
bioavailability ([3]; male, Wistar, rat, in vivo, po, rats, P.O 5 mg/kg vs I.V 5 mg/kg, read-out: F % (absolute bioavailability)): 49.2%
AUC(0-inf) ([3]; male, Wistar, rat, in vivo, po, rats, P.O, 5 mg/kg, read-out: AUCinf): 1740 ng·h/mL
Cmax ([3]; male, Wistar, rat, in vivo, po, rats, P.O, 5 mg/kg, read-out: Cmax): 5780 ng/mL
Tmax ([3]; male, Wistar, rat, in vivo, po, rats, P.O, 5 mg/kg, read-out: Tmax): 4.98 min
apparent oral clearance (CL/F) ([3]; rats, P.O, 5 mg/kg): 53.77 mL/min/kg
In vivo pharmacokinetic properties (conclusion) ([3]; rats, Tables 8 and 9): good in vivo pharmacokinetic properties

Structure (SMILES): COCCCOc1ccnc(C[S@@+]([O-])c2nc3cc4c(cc3[nH]2)OCC4)c1C [Compound 30 (sodium salt), (R)-2-[[[4-(3-methoxylpropoxy)-3-methyl-2-pyridyl]methyl]sulfinyl]-6,7-dihydro-3H-benzofuro[5,6-d]imidazole sodium]
Gastric juice volume [1, 6]: 3.60 ± 1.30 mL
Volume of supernatant of gastric juice [1, 6]: 2.87 ± 1.17 mL
Acidity degree (pH value) [1, 7]: 6.08 pH value
Total acid output [1, 7]: 0.0076 mmol/h
Total acidity degree [1, 7]: 17.21 mmol/L
Vd [3, 9]: 0.394 L/kg
clearance [3, 9]: 26.5 mL/min/kg
half-life [3, 9]: 16.5 min
AUC(0-inf) [3, 10]: 1260 ng·h/mL
CL [3, 10]: 83.5 mL/min/kg
Cmax [3, 10]: 3250 ng/mL
Tmax [3, 10]: 4.98 to 15 min
bioavailability [3, 10]: 39.3%

Structure (SMILES): COCCCOc1ccnc(C[S@@+]([O-])c2nc3cc4c(cc3[nH]2)OCC4)c1C [Compound 30, (R)-2-[[[4-(3-methoxylpropoxy)-3-methyl-2-pyridyl]methyl]sulfinyl]-6,7-dihydro-3H-benzofuro[5,6-d]imidazole]
In vivo pharmacokinetic properties (conclusion) ([3]; rats, Tables 8 and 9): good in vivo pharmacokinetic properties

Structure (SMILES): COc1c(C)cnc(C[S+]([O-])c2nc3cc4c(cc3[nH]2)OCO4)c1C (stereo not shown) [Compound 81, reference compound]
Total acidity degree [1, 8]: 71.27 ± 16.51 mmol/L
Esophagitis index [2]: 0.83 ± 1.60
Protection effect on reflux esophagitis in rats (conclusion) ([2]; 20 mg/kg): no protection effect
Injury status ([2]; 20 mg/kg): Normal
Esophagus injury score ([2]; 20 mg/kg, female rats): 0 (2×) and 1 (1 score for injury area of 1-25%)
Esophagus injury score ([2]; 20 mg/kg, male rats): 4 (4 scores for injury area exceeding 75% or perforation) and 0 (2×)

Structure (SMILES): COCCCOc1ccnc(C[S+]([O-])c2nc3ccccc3[nH]2)c1C (stereo not shown) [Rabeprazole]
Activity against gastric acid secretion in vitro relative to Omeprazole (gastric acid secretion): 2-10 times
Time to achieve the maximum acid inhibition effect (gastric acid): ≤ 5 min
Duration of action (gastric acid; compared with Omeprazole): shorter than that of Omeprazole
